Reference: ChEMBL document CHEMBL1201862, “PubChem BioAssay data set” (2004)
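Interpolation was linear, between the two tested concentrations surrounding the appropriate level; five concentrations were tested over 48 hours in 96-well plates. GI50 marks 50% less growth.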 Activity calls are given as the source filed them. Cut-off read from the data, not from the text of the source: active = GI50 up to about 1.1 µM and inactive = higher.

Columns and labels:
Assay in all cases: inhibition of tumour cell growth, NCI panel, 48 h
SF-295 = tested on: SF-295
NCI-H522 = tested on: NCI-H522
ACHN = tested on: ACHN
SNB-19 = tested on: SNB-19
SW-620 = tested on: SW-620
SF-539 = tested on: SF-539
OVCAR-4 = tested on: OVCAR-4
RPMI-8226 = tested on: RPMI-8226
SN12C = tested on: SN12C
OVCAR-8 = tested on: OVCAR-8
SF-268 = tested on: SF-268
MDA-MB-231 = tested on: MDA-MB-231
CAKI-1 = tested on: CAKI-1
NCI/ADR-RES = tested on: NCI/ADR-RES
NCI-H226 = tested on: NCI-H226
HT-29 = tested on: HT-29
Hs-578T = tested on: Hs-578T
OVCAR-3 = tested on: OVCAR-3
MDA-N = tested on: MDA-N

Measured: GI50

Cn1c(=O)cc(N2CCCC2)[nH]c1=O
inactive: SF-295 > 100 µM | NCI-H522 > 100 µM | ACHN > 100 µM | SNB-19 > 100 µM | SW-620 > 100 µM | SF-539 > 100 µM | OVCAR-4 > 100 µM | RPMI-8226 > 100 µM | SN12C > 100 µM | OVCAR-8 > 100 µM | SF-268 74.1 µM | MDA-MB-231 > 100 µM | CAKI-1 > 100 µM | NCI/ADR-RES > 100 µM | NCI-H226 > 100 µM | HT-29 > 100 µM

CCCCCCCC1(N=[N+]=[N-])C(=O)c2ccccc2N(C)C1=O (stereo not drawn)
inactive: SF-295 > 100 µM | NCI-H522 64.9 µM | ACHN 75 µM | SNB-19 > 100 µM | SW-620 > 100 µM | SF-539 > 100 µM | Hs-578T > 100 µM | OVCAR-4 87.3 µM | OVCAR-3 49 µM | RPMI-8226 56.1 µM | SN12C > 100 µM | OVCAR-8 86.5 µM | SF-268 93.8 µM | MDA-MB-231 > 100 µM | CAKI-1 > 100 µM | NCI/ADR-RES 35.6 µM | NCI-H226 > 100 µM | HT-29 40.1 µM

O=c1c(Cc2c(O)ccc3ccccc23)nnc2sc(-c3nn4c(=O)c(Cc5c(O)ccc6ccccc56)nnc4s3)nn12
inactive: ACHN 57.4 µM | SNB-19 38.5 µM | SW-620 > 100 µM | Hs-578T 10.8 µM | OVCAR-4 > 100 µM | OVCAR-3 > 100 µM | RPMI-8226 > 100 µM | SN12C > 100 µM | OVCAR-8 > 100 µM | SF-268 8.63 µM | MDA-N > 100 µM | MDA-MB-231 32.6 µM | CAKI-1 > 100 µM | NCI/ADR-RES > 100 µM | HT-29 > 100 µM

Oc1ccc(-c2nc(-c3cccnc3)c(-c3ccc(F)cc3)[nH]2)cc1
inactive: SF-295 16.7 µM | ACHN 20.5 µM | SNB-19 25.2 µM | SW-620 17.8 µM | Hs-578T 20.9 µM | OVCAR-4 17.7 µM | OVCAR-3 16.7 µM | RPMI-8226 10.2 µM | SN12C 23.9 µM | OVCAR-8 17.9 µM | SF-268 22.5 µM | MDA-N 19 µM | MDA-MB-231 18.9 µM | CAKI-1 28.6 µM | NCI/ADR-RES 19 µM | NCI-H226 21.5 µM | HT-29 18.1 µM

CC1(C)CNC(=O)C2(CCCO2)CNC(C)(C)CNC(=O)C2(CCCO2)CN1 (stereo not drawn)
inactive: SF-295 > 10 µM | NCI-H522 > 10 µM | ACHN > 10 µM | SNB-19 > 10 µM | SW-620 > 10 µM | SF-539 > 10 µM | Hs-578T > 10 µM | OVCAR-4 > 10 µM | OVCAR-3 > 10 µM | RPMI-8226 > 10 µM | SN12C > 10 µM | OVCAR-8 > 10 µM | SF-268 > 10 µM | MDA-MB-231 > 10 µM | CAKI-1 > 10 µM | NCI/ADR-RES > 10 µM | HT-29 > 10 µM

O=C1/C(=C/c2cccs2)NC(=S)N1CN1CCOCC1
inactive: SF-295 > 100 µM | ACHN > 100 µM | SNB-19 > 100 µM | SW-620 > 100 µM | Hs-578T > 100 µM | OVCAR-3 > 100 µM | RPMI-8226 > 100 µM | SN12C > 100 µM | OVCAR-8 > 100 µM | SF-268 > 100 µM | MDA-N > 100 µM | MDA-MB-231 > 100 µM | NCI/ADR-RES > 100 µM | NCI-H226 > 100 µM | HT-29 > 100 µM

CSc1ccc(/C=C2\N=C(c3ccccc3)N(c3nc4c(Cl)cc(Cl)cc4s3)C2=O)cc1
inactive: SF-295 24.3 µM | ACHN 27 µM | SNB-19 28.9 µM | SW-620 29.4 µM | SF-539 34.5 µM | Hs-578T 21.9 µM | OVCAR-4 21.2 µM | OVCAR-3 18.9 µM | RPMI-8226 22.5 µM | SN12C 24.8 µM | OVCAR-8 38.5 µM | SF-268 28.2 µM | MDA-N 17 µM | MDA-MB-231 18.9 µM | CAKI-1 31 µM | NCI/ADR-RES 25.2 µM | HT-29 19.8 µM

CS(=O)(=O)c1nc(-c2cc3c(c(S(C)(=O)=O)n2)CCC3)cc2c1CCC2
inactive: SF-295 > 100 µM | NCI-H522 > 100 µM | ACHN > 100 µM | SNB-19 67.5 µM | SW-620 > 100 µM | SF-539 > 100 µM | OVCAR-4 > 100 µM | OVCAR-3 > 100 µM | RPMI-8226 > 100 µM | SN12C > 100 µM | OVCAR-8 74.5 µM | SF-268 44.3 µM | MDA-N > 100 µM | MDA-MB-231 24.4 µM | CAKI-1 > 100 µM | NCI/ADR-RES > 100 µM | NCI-H226 > 100 µM | HT-29 > 100 µM

CCOC(=O)c1ccc(NCC#CCN2CCCCC2)cc1
inactive: ACHN 57.5 µM | SNB-19 > 100 µM | SW-620 > 100 µM | SF-539 > 100 µM | Hs-578T > 100 µM | OVCAR-4 > 100 µM | OVCAR-3 > 100 µM | RPMI-8226 > 100 µM | SN12C > 100 µM | SF-268 > 100 µM | MDA-N 60.4 µM | MDA-MB-231 > 100 µM | NCI/ADR-RES > 100 µM | NCI-H226 > 100 µM | HT-29 > 100 µM

O=C1/C(=C/c2ccccc2S)N=C(c2ccccc2)N1c1ccc2c(c1)Sc1cc(N3C(=O)/C(=C/c4ccccc4S)N=C3c3ccccc3)ccc1N2
inactive: SF-295 16.8 µM | ACHN 18.6 µM | SNB-19 16.7 µM | SW-620 19.8 µM | SF-539 11.8 µM | Hs-578T 25.6 µM | OVCAR-4 32.6 µM | OVCAR-3 18.8 µM | RPMI-8226 19 µM | SN12C 19.2 µM | OVCAR-8 19.4 µM | SF-268 19.5 µM | MDA-N 23.8 µM | MDA-MB-231 28.4 µM | CAKI-1 18.7 µM | NCI/ADR-RES 35.5 µM | HT-29 34.4 µM

O=c1[nH]nc(Nc2ccc(Cl)cc2)c2nnn(-c3ccc([N+](=O)[O-])cc3)c12
inactive: SF-295 25.3 µM | NCI-H522 4.47 µM | ACHN 43.3 µM | SNB-19 30.9 µM | SW-620 30.9 µM | SF-539 17.5 µM | OVCAR-4 23.8 µM | RPMI-8226 10.7 µM | SN12C 26.9 µM | OVCAR-8 16.2 µM | SF-268 24.3 µM | MDA-MB-231 42.4 µM | CAKI-1 39.5 µM | NCI/ADR-RES 23.1 µM | NCI-H226 42.1 µM | HT-29 25.4 µM

CC(C(=O)n1ccnc1)N1c2ccccc2Sc2ccccc21 (stereo not drawn)
inactive: SF-295 > 100 µM | ACHN 83.2 µM | SNB-19 > 100 µM | SW-620 > 100 µM | SF-539 > 100 µM | Hs-578T > 100 µM | OVCAR-4 > 100 µM | OVCAR-3 38.5 µM | RPMI-8226 65.3 µM | SN12C 96.6 µM | OVCAR-8 > 100 µM | SF-268 98.2 µM | MDA-N > 100 µM | MDA-MB-231 78.3 µM | NCI/ADR-RES 63.2 µM | NCI-H226 61.9 µM | HT-29 90.4 µM

COc1cc(N)c2[nH]c3c(C)ccc(C)c3c2c1
inactive: SF-295 > 100 µM | NCI-H522 > 100 µM | ACHN > 100 µM | SNB-19 > 100 µM | SW-620 > 100 µM | SF-539 > 100 µM | OVCAR-4 > 100 µM | OVCAR-3 > 100 µM | RPMI-8226 > 100 µM | SN12C > 100 µM | OVCAR-8 > 100 µM | SF-268 > 100 µM | CAKI-1 > 100 µM | NCI-H226 > 100 µM | HT-29 > 100 µM

COc1cccc2c1OC1c3ccccc3OCC1C2 (stereo not drawn)
inactive: SF-295 > 100 µM | NCI-H522 > 10 µM | SW-620 > 100 µM | SF-539 > 100 µM | OVCAR-3 > 100 µM | RPMI-8226 > 100 µM | SN12C > 100 µM | OVCAR-8 > 100 µM | SF-268 > 100 µM | MDA-N > 100 µM | MDA-MB-231 > 100 µM | CAKI-1 > 100 µM | NCI/ADR-RES 34.6 µM | NCI-H226 > 100 µM | HT-29 > 100 µM

COP(=O)(OC)C(O)/C=C(\Cl)c1ccc(Cl)cc1 (stereo not drawn)
inactive: SF-295 > 100 µM | NCI-H522 49.1 µM | ACHN 85.1 µM | SNB-19 75.5 µM | SW-620 38.8 µM | SF-539 > 100 µM | Hs-578T > 100 µM | OVCAR-4 37.2 µM | OVCAR-3 19.1 µM | RPMI-8226 25.6 µM | SN12C 40.7 µM | OVCAR-8 23.9 µM | SF-268 65.2 µM | MDA-MB-231 43.8 µM | CAKI-1 69.2 µM | NCI/ADR-RES 23.1 µM | NCI-H226 > 100 µM | HT-29 > 100 µM

CCC(C)[C@H](NC(=O)N[C@H](C)c1ccccc1)C(=O)OC (stereo partly drawn)
inactive: SF-295 > 100 µM | ACHN > 100 µM | SNB-19 > 100 µM | SW-620 > 100 µM | SF-539 25.8 µM | OVCAR-4 > 100 µM | OVCAR-3 > 100 µM | RPMI-8226 > 100 µM | SN12C > 100 µM | OVCAR-8 > 100 µM | MDA-N > 100 µM | MDA-MB-231 > 100 µM | CAKI-1 > 100 µM | NCI-H226 > 100 µM | HT-29 > 100 µM

O=C(O)c1ccccc1C(=O)Nc1cc2c(cc1Br)-c1ccccc1C2=O
inactive: NCI-H522 59.7 µM | ACHN > 100 µM | SNB-19 > 100 µM | SW-620 > 100 µM | SF-539 > 100 µM | Hs-578T 91.2 µM | OVCAR-4 > 100 µM | OVCAR-3 40.6 µM | RPMI-8226 > 100 µM | SN12C > 100 µM | OVCAR-8 > 100 µM | SF-268 > 100 µM | MDA-N > 100 µM | MDA-MB-231 > 100 µM | CAKI-1 > 100 µM | NCI/ADR-RES > 100 µM | HT-29 > 100 µM
